From ChEMBL document CHEMBL2163300, “Mitogen-activated protein kinase-activated protein kinase 2 (MAPKAP-K2) as an antiinflammatory target: discovery and in vivo activity of selective pyrazolo[1,5-a]pyrimidine inhibitors using a focused library and structure-based optimization approach” (J Med Chem, 2012)
Converted amounts (≈) assume the structure as drawn. One block for each compound: values may come before it.

Experiments:
[1] = molecular target: T1, MAP kinase-activated protein kinase 2 (Homo sapiens, UniProt P49137); assay: Competitive inhibition of MAPKAP-K2 using KKLNRTLSVA as substrate and [33P]-gamma-ATP by Lineweaver-Burke plot analysis
[2] = Apparent permeability across apical to basolateral side in human Caco2 cells; type: ADME, cell-based; settings: Caco-2
[3] = Intrinsic clearance in mouse liver microsomes; type: ADME, Microsome; settings: read-out: CLH
[4] = Solubility of the compound at pH 7.4; type: physicochemical; settings: buffer
[5] = Intrinsic clearance in human liver microsomes; type: ADME, Microsome; settings: read-out: CLH
[6] = molecular target: Mitogen-activated protein kinase 9 (Homo sapiens, UniProt P45984); assay: Inhibition of JNK2
[7] = molecular target: T2, Rho-associated protein kinase 2 (Homo sapiens, UniProt O75116); assay: Inhibition of ROK2
[8] = molecular target: MAP kinase-activated protein kinase 5 (Homo sapiens, UniProt Q8IW41); assay: Inhibition of PRAK
[9] = molecular target: T3, Mitogen-activated protein kinase 14 (Homo sapiens, UniProt Q16539); assay: Inhibition of P38alpha
[10] = molecular target: Tyrosine-protein kinase Lck (Homo sapiens, UniProt P06239); assay: Inhibition of LCK
[11] = Inhibition of PHK
[12] = molecular target: Glycogen synthase kinase-3 beta (Homo sapiens, UniProt P49841); assay: Inhibition of GSK3beta
[13] = molecular target: T1, MAP kinase-activated protein kinase 2; assay: Inhibition of MAPKAP-K2 using KKLNRTLSVA as substrate and [33P]-gamma-ATP after 30 mins by liquid scintillation counter
[14] = molecular target: Cyclin-dependent kinase 2 (Homo sapiens, UniProt P24941)
Description: Inhibition of CDK2 after 60 mins using [33P]-gamma-ATP by liquid scintillation counter

Serum [15] = assay: Drug level in C57BL/6 mouse serum at 100 mg/kg, po; type: ADME, organism-based; parameters: dose 100 mg/kg, route oral; settings: in vivo, read-out: Drug uptake
Serum [16] = assay: Drug level in C57BL/6 mouse serum at 60 mg/kg, po; type: ADME, organism-based; parameters: dose 60 mg/kg, route oral; settings: in vivo, read-out: Drug uptake
Serum [17] = assay: Drug level in C57BL/6 mouse serum at 30 mg/kg, po; type: ADME, organism-based; parameters: dose 30 mg/kg, route oral; settings: in vivo, read-out: Drug uptake
Serum [18] = assay: Drug level in C57BL/6 mouse serum at 10 mg/kg, po; type: ADME, organism-based; parameters: dose 10 mg/kg, route oral; settings: in vivo, read-out: Drug uptake
Serum [19] = assay: Drug uptake in po dosed C57BL/6 mouse serum; type: ADME, organism-based; settings: in vivo
Mus musculus [20] = assay: Antiinflammatory activity in po dosed C57BL/6 mouse assessed as decrease in LPS-induced serum TNFalpha level administered 30 mins prior to LPS challenge measured 60 mins post LPS challenge by ELISA; type: functional, organism-based
Mus musculus [21] = assay: Antiinflammatory activity in C57BL/6 mouse assessed as LPS-induced serum TNFalpha level at 100 mg/kg, po administered 30 mins prior to LPS challenge measured 60 mins post LPS challenge by ELISA relative to vehicle-treated control; type: functional
[22] = Total clearance in mouse at 1 mg/kg, iv; type: ADME, organism-based; parameters: dose 1 mg/kg, route intravenous; settings: in vivo
[23] = Half life in mouse at 1 mg/kg, iv; type: ADME, organism-based; parameters: dose 1 mg/kg, route intravenous; settings: in vivo
[24] = AUC (0 to 24 hrs) in mouse at 1 mg/kg, po; type: ADME, organism-based; parameters: time < 24 hr, dose 1 mg/kg, route oral; settings: plasma
[25] = Oral bioavailability in mouse at 1 mg/kg; type: ADME, organism-based; settings: in vivo
[26] = molecular target: MAP kinase-activated protein kinase 2 (Mus musculus, UniProt P49138); assay: Inhibition of MAPKAP-K2 in mouse whole blood assessed as inhibition of LPS-induced TNFalpha production by ELISA
THP-1 = assay: Cytotoxicity against human THP1 cells assessed as cell viability by MTS assay; type: cell-based
[27] = Plasma protein binding in mouse; type: ADME, cell-free; settings: read-out: PPB (converted)
[28] = molecular target: Ribosomal protein S6 kinase alpha-3 (Homo sapiens) (UniProt P51812); assay: Inhibition of human RSK2 at 10 uM
[29] = molecular target: MAP kinase-activated protein kinase 5 (Homo sapiens) (UniProt Q8IW41); assay: Inhibition of human PRAK at 10 uM
[30] = molecular target: Protein kinase C gamma type (Homo sapiens) (UniProt P05129); assay: Inhibition of human PKCgamma at 10 uM
[31] = molecular target: T2, Rho-associated protein kinase 2; assay: Inhibition of human ROCK2 at 10 uM
Homo sapiens = species: Homo sapiens; assay: Inhibition of human PKA at 10 uM
[32] = molecular target: Protein kinase C alpha type (Homo sapiens) (UniProt P17252); assay: Inhibition of human PKCalpha at 10 uM
[33] = molecular target: Ribosomal protein S6 kinase beta-1 (Homo sapiens) (UniProt P23443); assay: Inhibition of human p70S6K at 10 uM
[34] = molecular target: 3-phosphoinositide-dependent protein kinase 1 (Homo sapiens) (UniProt O15530); assay: Inhibition of human PDK1 at 10 uM
[35] = molecular target: RAC-alpha serine/threonine-protein kinase (Homo sapiens) (UniProt P31749); assay: Inhibition of human PKBalpha at 10 uM
[36] = molecular target: Serine/threonine-protein kinase Chk1 (Homo sapiens) (UniProt O14757); assay: Inhibition of human CHK1 at 10 uM
Rattus norvegicus [37] = species: Rattus norvegicus; assay: Inhibition of rat CAMK2 at 10 uM
[38] = molecular target: Cyclin-dependent kinase 1/cyclin B1 (Homo sapiens) (UniProt P06493+P14635); assay: Inhibition of human Cdk1/cyclin B at 10 uM; type: protein-complex assay
[39] = molecular target: Mitogen-activated protein kinase 1 (Homo sapiens) (UniProt P28482); assay: Inhibition of human ERK2 at 10 uM
[40] = molecular target: Inhibitor of nuclear factor kappa-B kinase subunit beta (Homo sapiens) (UniProt O14920); assay: Inhibition of human IKKbeta at 10 uM
[41] = molecular target: Mitogen-activated protein kinase 8 (Homo sapiens) (UniProt P45983); assay: Inhibition of human JNK1alpha1 at 10 uM
[42] = molecular target: T3, Mitogen-activated protein kinase 14; assay: Inhibition of human p38alpha at 10 uM
[43] = molecular target: Mitogen-activated protein kinase 12 (Homo sapiens) (UniProt P53778); assay: Inhibition of human p38gamma at 10 uM
[44] = molecular target: Mitogen-activated protein kinase 13 (Homo sapiens) (UniProt O15264); assay: Inhibition of human p38delta at 10 uM
[45] = molecular target: Dual specificity mitogen-activated protein kinase kinase 4 (Mus musculus) (UniProt P47809); assay: Inhibition of mouse MKK4 at 10 uM
[46] = molecular target: Dual specificity mitogen-activated protein kinase kinase 6 (Homo sapiens) (UniProt P52564); assay: Inhibition of human MKK6 at 10 uM
[47] = molecular target: Dual specificity mitogen-activated protein kinase kinase 7 (Homo sapiens) (UniProt O14733); assay: Inhibition of human MKK7beta at 10 uM
[48] = molecular target: Dual specificity mitogen-activated protein kinase kinase 1 (Homo sapiens) (UniProt Q02750); assay: Inhibition of human MEK1 at 10 uM
Rattus norvegicus [49] = species: Rattus norvegicus; assay: Inhibition of rat AMPK at 10 uM
[50] = molecular target: Receptor-type tyrosine-protein kinase FLT3 (Homo sapiens) (UniProt P36888); settings: 10 uM
Description: Inhibition of human FLT3 at 10 uM

[51] = molecular target: Tyrosine-protein kinase Fes/Fps (Homo sapiens) (UniProt P07332); settings: 10 uM
Description: Inhibition of human FES at 10 uM

[52] = molecular target: Tyrosine-protein kinase Yes (Homo sapiens) (UniProt P07947); settings: 10 uM
Chain of Tyrosine-protein kinase Yes (Homo sapiens) (P07947 2-543 limits assumed): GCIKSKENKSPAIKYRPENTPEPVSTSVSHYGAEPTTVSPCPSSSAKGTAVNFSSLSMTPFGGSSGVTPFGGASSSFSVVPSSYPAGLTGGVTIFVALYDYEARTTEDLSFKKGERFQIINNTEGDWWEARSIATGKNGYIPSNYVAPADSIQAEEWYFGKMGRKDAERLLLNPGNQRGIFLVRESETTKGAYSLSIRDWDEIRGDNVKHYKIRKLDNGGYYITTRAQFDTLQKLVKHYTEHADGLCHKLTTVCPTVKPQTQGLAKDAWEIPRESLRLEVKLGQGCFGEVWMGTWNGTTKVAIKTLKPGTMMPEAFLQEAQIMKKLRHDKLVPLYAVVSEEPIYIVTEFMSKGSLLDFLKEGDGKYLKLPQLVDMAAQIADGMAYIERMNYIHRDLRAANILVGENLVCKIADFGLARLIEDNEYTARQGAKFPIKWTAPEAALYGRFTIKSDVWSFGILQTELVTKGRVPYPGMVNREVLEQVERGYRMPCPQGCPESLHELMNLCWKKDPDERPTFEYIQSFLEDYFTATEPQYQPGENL
Description: Inhibition of human YES at 10 uM

T3 sequence (Q16539 whole entry): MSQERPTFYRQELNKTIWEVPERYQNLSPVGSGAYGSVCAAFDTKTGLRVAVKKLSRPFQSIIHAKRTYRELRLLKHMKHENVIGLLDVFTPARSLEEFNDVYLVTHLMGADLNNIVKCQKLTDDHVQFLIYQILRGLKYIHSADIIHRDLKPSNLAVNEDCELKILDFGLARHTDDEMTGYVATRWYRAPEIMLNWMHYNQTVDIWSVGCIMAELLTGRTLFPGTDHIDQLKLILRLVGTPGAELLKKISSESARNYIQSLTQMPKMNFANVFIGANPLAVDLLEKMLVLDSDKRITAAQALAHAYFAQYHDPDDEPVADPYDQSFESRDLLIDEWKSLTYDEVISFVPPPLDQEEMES
T1 sequence (P49137 whole entry): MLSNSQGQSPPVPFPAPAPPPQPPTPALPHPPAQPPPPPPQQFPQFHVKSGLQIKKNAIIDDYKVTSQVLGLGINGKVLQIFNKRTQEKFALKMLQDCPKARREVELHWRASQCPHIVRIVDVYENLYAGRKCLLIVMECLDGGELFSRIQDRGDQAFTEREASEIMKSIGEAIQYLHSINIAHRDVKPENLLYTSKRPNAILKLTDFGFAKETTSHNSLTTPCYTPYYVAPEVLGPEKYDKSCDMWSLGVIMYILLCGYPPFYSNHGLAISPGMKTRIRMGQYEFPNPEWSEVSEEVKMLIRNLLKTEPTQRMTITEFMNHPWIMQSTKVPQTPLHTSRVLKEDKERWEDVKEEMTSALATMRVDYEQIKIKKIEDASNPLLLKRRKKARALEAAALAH
Chain of Dual specificity mitogen-activated protein kinase kinase 6 (Homo sapiens) (P52564 whole entry): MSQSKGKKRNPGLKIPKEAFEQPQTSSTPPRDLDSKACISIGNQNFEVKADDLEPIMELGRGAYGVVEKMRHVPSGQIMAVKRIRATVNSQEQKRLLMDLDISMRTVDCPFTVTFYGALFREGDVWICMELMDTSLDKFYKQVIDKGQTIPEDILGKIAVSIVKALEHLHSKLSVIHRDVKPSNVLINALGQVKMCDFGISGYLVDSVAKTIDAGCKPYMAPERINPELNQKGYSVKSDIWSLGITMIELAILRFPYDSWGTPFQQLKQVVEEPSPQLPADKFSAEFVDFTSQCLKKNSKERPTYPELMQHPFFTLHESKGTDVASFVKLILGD
Chain of 3-phosphoinositide-dependent protein kinase 1 (Homo sapiens) (O15530 whole entry): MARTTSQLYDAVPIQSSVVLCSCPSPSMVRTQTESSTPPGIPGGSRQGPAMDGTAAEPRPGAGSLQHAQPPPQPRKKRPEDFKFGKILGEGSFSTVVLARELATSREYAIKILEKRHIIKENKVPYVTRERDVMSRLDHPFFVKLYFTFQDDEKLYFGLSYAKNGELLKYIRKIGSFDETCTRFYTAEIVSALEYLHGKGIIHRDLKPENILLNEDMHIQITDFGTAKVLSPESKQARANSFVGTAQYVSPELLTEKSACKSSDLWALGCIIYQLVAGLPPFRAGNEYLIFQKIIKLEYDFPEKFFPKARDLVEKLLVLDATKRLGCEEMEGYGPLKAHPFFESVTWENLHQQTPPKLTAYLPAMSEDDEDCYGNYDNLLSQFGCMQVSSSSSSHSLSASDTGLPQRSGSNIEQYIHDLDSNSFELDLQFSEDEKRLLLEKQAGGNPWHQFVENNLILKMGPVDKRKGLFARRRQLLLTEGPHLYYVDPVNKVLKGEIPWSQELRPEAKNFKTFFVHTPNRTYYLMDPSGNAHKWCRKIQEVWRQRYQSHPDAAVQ
Chain of Tyrosine-protein kinase Lck (P06239 whole entry): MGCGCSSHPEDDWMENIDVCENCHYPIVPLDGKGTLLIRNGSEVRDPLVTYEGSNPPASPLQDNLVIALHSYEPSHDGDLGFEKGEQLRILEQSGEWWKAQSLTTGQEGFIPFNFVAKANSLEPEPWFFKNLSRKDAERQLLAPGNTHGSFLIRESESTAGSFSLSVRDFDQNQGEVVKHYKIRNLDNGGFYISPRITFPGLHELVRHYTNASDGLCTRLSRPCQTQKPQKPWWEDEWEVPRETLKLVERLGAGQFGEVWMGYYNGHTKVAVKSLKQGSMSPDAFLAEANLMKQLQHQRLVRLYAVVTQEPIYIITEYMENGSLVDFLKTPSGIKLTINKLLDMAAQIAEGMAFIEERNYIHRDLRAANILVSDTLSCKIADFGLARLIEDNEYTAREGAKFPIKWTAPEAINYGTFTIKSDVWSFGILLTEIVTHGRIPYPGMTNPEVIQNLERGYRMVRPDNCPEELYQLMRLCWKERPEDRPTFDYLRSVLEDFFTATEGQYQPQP
Chain of Glycogen synthase kinase-3 beta (P49841 whole entry): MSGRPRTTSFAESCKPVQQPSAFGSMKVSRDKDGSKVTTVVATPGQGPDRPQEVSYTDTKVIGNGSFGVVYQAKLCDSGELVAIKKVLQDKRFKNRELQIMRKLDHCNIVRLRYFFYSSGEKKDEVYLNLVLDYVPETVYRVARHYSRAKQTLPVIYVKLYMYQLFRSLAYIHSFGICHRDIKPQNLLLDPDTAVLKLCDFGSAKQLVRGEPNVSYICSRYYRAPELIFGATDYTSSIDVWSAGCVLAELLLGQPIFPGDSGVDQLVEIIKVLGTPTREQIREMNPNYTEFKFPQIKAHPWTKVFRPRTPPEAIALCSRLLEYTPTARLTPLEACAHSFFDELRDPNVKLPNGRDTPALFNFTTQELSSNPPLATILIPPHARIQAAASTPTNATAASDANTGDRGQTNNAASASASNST
Chain of Cyclin-dependent kinase 1/cyclin B1 (Homo sapiens) (P06493 whole entry, looked up): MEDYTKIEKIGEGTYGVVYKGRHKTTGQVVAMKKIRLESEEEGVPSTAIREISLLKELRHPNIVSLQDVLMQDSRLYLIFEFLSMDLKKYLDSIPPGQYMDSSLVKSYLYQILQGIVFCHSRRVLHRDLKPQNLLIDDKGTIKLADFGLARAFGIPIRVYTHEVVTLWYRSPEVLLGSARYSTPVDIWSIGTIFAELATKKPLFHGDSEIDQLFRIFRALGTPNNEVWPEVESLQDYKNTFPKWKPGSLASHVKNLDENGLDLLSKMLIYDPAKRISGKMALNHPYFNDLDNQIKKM
Chain of Cyclin-dependent kinase 1/cyclin B1 (Homo sapiens) (P14635 whole entry, looked up): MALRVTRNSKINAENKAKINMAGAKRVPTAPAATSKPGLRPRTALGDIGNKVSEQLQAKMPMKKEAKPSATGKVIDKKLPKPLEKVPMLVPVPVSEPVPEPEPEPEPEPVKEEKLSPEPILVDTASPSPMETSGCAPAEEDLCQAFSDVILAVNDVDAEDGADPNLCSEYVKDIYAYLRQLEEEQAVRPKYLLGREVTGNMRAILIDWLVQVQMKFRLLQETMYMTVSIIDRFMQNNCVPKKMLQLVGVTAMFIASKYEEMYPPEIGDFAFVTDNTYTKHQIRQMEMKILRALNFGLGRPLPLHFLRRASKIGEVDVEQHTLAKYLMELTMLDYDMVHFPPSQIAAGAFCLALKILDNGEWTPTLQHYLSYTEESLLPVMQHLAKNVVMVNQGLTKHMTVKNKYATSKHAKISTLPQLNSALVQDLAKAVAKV
Chain of RAC-alpha serine/threonine-protein kinase (Homo sapiens) (P31749 whole entry): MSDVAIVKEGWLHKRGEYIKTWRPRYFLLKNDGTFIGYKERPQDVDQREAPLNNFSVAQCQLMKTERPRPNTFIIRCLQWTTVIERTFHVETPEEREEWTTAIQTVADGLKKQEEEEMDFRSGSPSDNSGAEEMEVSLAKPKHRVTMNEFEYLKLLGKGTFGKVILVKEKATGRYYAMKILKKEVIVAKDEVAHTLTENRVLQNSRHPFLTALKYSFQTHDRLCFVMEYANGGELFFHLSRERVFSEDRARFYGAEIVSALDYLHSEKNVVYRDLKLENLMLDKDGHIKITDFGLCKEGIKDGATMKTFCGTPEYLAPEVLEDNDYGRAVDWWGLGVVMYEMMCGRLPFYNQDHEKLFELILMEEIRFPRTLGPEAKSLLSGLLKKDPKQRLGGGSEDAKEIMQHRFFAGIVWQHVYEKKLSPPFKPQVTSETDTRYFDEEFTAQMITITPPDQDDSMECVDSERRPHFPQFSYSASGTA
Chain of Dual specificity mitogen-activated protein kinase kinase 7 (Homo sapiens) (O14733 whole entry): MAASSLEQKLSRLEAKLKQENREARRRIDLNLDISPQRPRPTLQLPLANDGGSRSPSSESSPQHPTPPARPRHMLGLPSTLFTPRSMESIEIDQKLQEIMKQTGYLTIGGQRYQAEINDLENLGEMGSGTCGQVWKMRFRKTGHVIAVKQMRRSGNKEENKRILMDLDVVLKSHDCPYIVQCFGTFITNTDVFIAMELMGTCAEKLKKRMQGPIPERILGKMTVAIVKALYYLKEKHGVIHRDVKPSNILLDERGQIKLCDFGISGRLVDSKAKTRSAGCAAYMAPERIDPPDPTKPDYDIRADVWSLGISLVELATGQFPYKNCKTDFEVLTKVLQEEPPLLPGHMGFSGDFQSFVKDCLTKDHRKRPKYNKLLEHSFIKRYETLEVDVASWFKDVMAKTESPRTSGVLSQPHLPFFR

Ki [1]: 6 µM
Papp A→B [2]: 7.1 ×10⁻⁶ cm/s
microsomal CLint [3]: 59 µL/min/mg
solubility [4]: 75 µg/mL (≈ 200 µM)
microsomal CLint [5]: < 10 µL/min/mg
IC50 [6]: 25 µM
IC50 [7]: 14 µM
IC50 [8]: 11 µM
IC50 [9]: > 100 µM
IC50 [10]: 300 µM
IC50 [11]: 3 µM
IC50 [12]: 23 µM
IC50 [13]: 1.3 µM
IC50 [14]: 0.055 µM
Structure (SMILES): N[C@H]1CC[C@H](Nc2cc(Nc3ccc(F)c(Cl)c3)n3nccc3n2)CC1

Structure (SMILES): CCOc1ccc(Nc2c(C)c(N[C@H]3CCCNC3)nc3ccnn23)cc1
concentration (Serum [15]): 10 µM
concentration (Serum [16]): 8 µM
concentration (Serum [17]): 5 µM
concentration (Serum [18]): 2 µM
Drug uptake (Serum [19]): Dose-dependent effect
Activity (Mus musculus [20]): Dose-dependent effect
Activity (Mus musculus [21]): 14%
clearance [22]: 68.3 mL/min/kg
half-life [23]: 2.2 h
AUC(0-t) at 24 h [24]: 0.438 µM·h
bioavailability [25]: 66%
IC50 [26]: 5 µM
IC50 (THP-1): 74 µM
fraction unbound [27]: 0.114
Papp A→B [2]: 28.3 ×10⁻⁶ cm/s
microsomal CLint [3]: 11 µL/min/mg
solubility [4]: 70 µg/mL (≈ 191 µM)
microsomal CLint [5]: < 10 µL/min/mg
inhibition [28]: 9%
inhibition [29]: 62%
inhibition [30]: -5%
inhibition [31]: 23%
inhibition (Homo sapiens): 0%
inhibition [32]: 5%
inhibition [33]: -1%
inhibition [34]: -9%
inhibition [35]: 3%
inhibition [36]: 30%
inhibition (Rattus norvegicus [37]): 41%
inhibition [38]: 12%
inhibition [39]: 7%
inhibition [40]: 7%
inhibition [41]: 0%
inhibition [42]: 4%
inhibition [43]: -2%
inhibition [44]: 3%
inhibition [45]: 15%
inhibition [46]: 24%
inhibition [47]: 26%
inhibition [48]: 19%
inhibition (Rattus norvegicus [49]): 35%
inhibition [50]: > 75%
inhibition [51]: > 75%
inhibition [52]: > 75%
